Measurements from ChEMBL document CHEMBL3885881, “DrugMatrix”.

Species: Rattus norvegicus
Assay: DrugMatrix - Regimen: Daily Repeat
Assay type: toxicity, organism-based, Sprague-Dawley
Parameters: regimen Daily Repeat, gender Male, age 6-8 weeks
Conditions: in vivo, po, 0.3 mg/kg, route oral GAVAGE, dose level Low, vehicle .5 % CMC; for ABSOLUTE BASOPHIL / ABSOLUTE EOSINOPHIL / ABSOLUTE LYMPHOCYTE / ABSOLUTE MONOCYTE / ABSOLUTE SEGMENTED NEUTROPHIL / BASOPHIL / EOSINOPHIL / ERYTHROCYTE COUNT / HEMATOCRIT / HEMOGLOBIN / LEUKOCYTE COUNT / LYMPHOCYTE / MEAN CORPUSCULAR HEMOGLOBIN / MEAN CORPUSCULAR HEMOGLOBIN CONCENTRATION / MEAN CORPUSCULAR VOLUME / MONOCYTE / NEUTROPHIL / NUCLEATED RED BLOOD CELLS / PLATELET COUNT: tissue Blood; for ALANINE AMINOTRANSFERASE / ALBUMIN / ALKALINE PHOSPHATASE / ASPARTATE AMINOTRANSFERASE / BLOOD UREA NITROGEN / CARBON DIOXIDE / CHLORIDE / CHOLESTEROL / CREATINE PHOSPHOKINASE / CREATININE / GLUCOSE / LACTATE DEHYDROGENASE / LIPASE / PHOSPHORUS / POTASSIUM / SODIUM / TOTAL BILIRUBIN / TOTAL PROTEIN / URIC ACID: tissue Plasma

Nc1c(CC(=O)O)cccc1C(=O)c1ccc(Br)cc1 [BROMFENAC]
ABSOLUTE BASOPHIL (72 h, time 3 day): 0 CELLS/uL | ABSOLUTE EOSINOPHIL (72 h, time 3 day): 0 CELLS/uL | ABSOLUTE LYMPHOCYTE (72 h, time 3 day): 8435.67 CELLS/uL | ABSOLUTE MONOCYTE (72 h, time 3 day): 96.67 CELLS/uL | ABSOLUTE SEGMENTED NEUTROPHIL (72 h, time 3 day): 1134.33 CELLS/uL | BASOPHIL (72 h, time 3 day): 0% | EOSINOPHIL (72 h, time 3 day): 0% | ERYTHROCYTE COUNT (72 h, time 3 day): 5.55 x10E6/uL | HEMATOCRIT (72 h, time 3 day): 35.1% | HEMOGLOBIN (72 h, time 3 day): 13.07 G/DL | LEUKOCYTE COUNT (72 h, time 3 day): 9.67 x10E3/uL | LYMPHOCYTE (72 h, time 3 day): 88% | MEAN CORPUSCULAR HEMOGLOBIN (72 h, time 3 day): 23.57 pg | MEAN CORPUSCULAR HEMOGLOBIN CONCENTRATION (72 h, time 3 day): 37.2 G/DL | MEAN CORPUSCULAR VOLUME (72 h, time 3 day): 63.33 fL | MONOCYTE (72 h, time 3 day): 1% | NEUTROPHIL (72 h, time 3 day): 11% | NUCLEATED RED BLOOD CELLS (72 h, time 3 day): 0 /100WBC | PLATELET COUNT (72 h, time 3 day): 1028.33 x10E3/uL | ALANINE AMINOTRANSFERASE (72 h, time 3 day): 48.33 u/L | ALBUMIN (72 h, time 3 day): 4.43 G/DL | ALKALINE PHOSPHATASE (72 h, time 3 day): 514.33 u/L | ASPARTATE AMINOTRANSFERASE (72 h, time 3 day): 96 u/L | BLOOD UREA NITROGEN (72 h, time 3 day): 15.67 mg/dL | CARBON DIOXIDE (72 h, time 3 day): 31.33 mmol/L | CHLORIDE (72 h, time 3 day): 101.5 MEQ/L | CHOLESTEROL (72 h, time 3 day): 68.67 mg/dL | CREATINE PHOSPHOKINASE (72 h, time 3 day): 316.33 u/L | CREATININE (72 h, time 3 day): 0.23 mg/dL | GLUCOSE (72 h, time 3 day): 142 mg/dL | LACTATE DEHYDROGENASE (72 h, time 3 day): 121.67 u/L | LIPASE (72 h, time 3 day): 9.67 u/L | PHOSPHORUS (72 h, time 3 day): 11.03 mg/dL | POTASSIUM (72 h, time 3 day): 5.91 MEQ/L | SODIUM (72 h, time 3 day): 144.65 MEQ/L | TOTAL BILIRUBIN (72 h, time 3 day): 0.1 mg/dL | TOTAL PROTEIN (72 h, time 3 day): 6.13 G/DL | URIC ACID (72 h, time 3 day): 0.67 mg/dL | ABSOLUTE BASOPHIL (120 h, time 5 day): 0 CELLS/uL | ABSOLUTE EOSINOPHIL (120 h, time 5 day): 0 CELLS/uL | ABSOLUTE LYMPHOCYTE (120 h, time 5 day): 10092.67 CELLS/uL | ABSOLUTE MONOCYTE (120 h, time 5 day): 194 CELLS/uL | ABSOLUTE SEGMENTED NEUTROPHIL (120 h, time 5 day): 1180 CELLS/uL | BASOPHIL (120 h, time 5 day): 0% | EOSINOPHIL (120 h, time 5 day): 0% | ERYTHROCYTE COUNT (120 h, time 5 day): 5.77 x10E6/uL | HEMATOCRIT (120 h, time 5 day): 37.27% | HEMOGLOBIN (120 h, time 5 day): 13.97 G/DL | LEUKOCYTE COUNT (120 h, time 5 day): 11.47 x10E3/uL | LYMPHOCYTE (120 h, time 5 day): 87.33% | MEAN CORPUSCULAR HEMOGLOBIN (120 h, time 5 day): 24.17 pg | MEAN CORPUSCULAR HEMOGLOBIN CONCENTRATION (120 h, time 5 day): 37.5 G/DL | MEAN CORPUSCULAR VOLUME (120 h, time 5 day): 64.5 fL | MONOCYTE (120 h, time 5 day): 1.33% | NEUTROPHIL (120 h, time 5 day): 11.33% | NUCLEATED RED BLOOD CELLS (120 h, time 5 day): 0 /100WBC | PLATELET COUNT (120 h, time 5 day): 1201.33 x10E3/uL | ALANINE AMINOTRANSFERASE (120 h, time 5 day): 48.67 u/L | ALBUMIN (120 h, time 5 day): 4.57 G/DL | ALKALINE PHOSPHATASE (120 h, time 5 day): 385 u/L | ASPARTATE AMINOTRANSFERASE (120 h, time 5 day): 86.33 u/L | BLOOD UREA NITROGEN (120 h, time 5 day): 15.67 mg/dL | CARBON DIOXIDE (120 h, time 5 day): 35.33 mmol/L | CHLORIDE (120 h, time 5 day): 99.67 MEQ/L | CHOLESTEROL (120 h, time 5 day): 83.67 mg/dL | CREATINE PHOSPHOKINASE (120 h, time 5 day): 586 u/L | CREATININE (120 h, time 5 day): 0.2 mg/dL | GLUCOSE (120 h, time 5 day): 151 mg/dL | LACTATE DEHYDROGENASE (120 h, time 5 day): 148.33 u/L | LIPASE (120 h, time 5 day): 9.33 u/L | PHOSPHORUS (120 h, time 5 day): 10.9 mg/dL | POTASSIUM (120 h, time 5 day): 6.38 MEQ/L | SODIUM (120 h, time 5 day): 143.9 MEQ/L | TOTAL BILIRUBIN (120 h, time 5 day): 0.2 mg/dL | TOTAL PROTEIN (120 h, time 5 day): 6.77 G/DL | URIC ACID (120 h, time 5 day): 0.8 mg/dL
